Consider 23 molecules from patent US4138492A, “Aromatic amides of heterocyclic compounds and therapeutic compositions containing same” (priority 1974, dated 1979).

Counter-ions that a name gives are not always drawn. Like-named read-outs stand apart in the source and are kept apart here. Where only a bound is given, the exact number is not on record here.

For data set [1], the system named is apomorphine-induced gnawing. Nature of the data set: Antiapomorphine activity (apomorphine-induced gnawing) in the rat. Format: in vivo. From the text: A number of the compounds of the present invention were screened in parallel with metoclopramide for potential anti-emetic effects against apomorphine-induced gnawing in the rat and as local anaesthetics on the rat sciatic nerve (Table I).
*Antiapomorphine activity in rat scored as […]

The nature of a further data set: in vivo. To be noted: rat, po.
Data set [2] can be described thus: Pharmacokinetics after oral administration of high doses of the malate salt. The class given is in vivo.
A further data set has as its system healthy male volunteers. Nature of the data set: Acute tolerance following intramuscular and intravenous administration in humans. Format: in vivo. The procedure:
Another study has been made to investigate the acute tolerance of the malate salt of Clebopride following intramuscular and intravenous administration in humans.
The subjects used were healthy male volunteers between 20 and 24 years of age and were divided into 8 groups and dosed with the test compound according to the following scheme:
Group I: 1 mg intramuscular per day for 5 days
Group II: 1.5 mgs intrasmuscular per day for 5 days
Group III: 2 mgs intramuscular per day for 5 days
Group IV: 0.25 mg intravenously per day for 5 days
Group V: 0.50 mg intravenously per day for 5 days
Group VI: 1 mg intravenously per day for 5 days
Group VII: 1.5 mgs intravenously per day for 5 days
Group VIII: 2 mgs intravenously per day for 5 days
The parameters evaluated were subjective symptoms; psychic disturbances; neurological disturbances; autonomic symptoms; digestive disturbances; urogenital disturbances; skin and mucous membranes; pulse; blood pressure; temperature; other side effects; blood analysis--leucocytes formula, hemoglobin content, erythrocyte sedimentation rate, glucose, cholesterol, urea, hepatic function tests, transaminasas; and urine analysis--density, albumin, sediment.

In data set [3] the test system is apomorphine-induced vomiting. Nature of the data set: Apomorphine-induced vomiting in the dog. Format: in vivo. To be noted: Canis lupus familiaris, po, per os, Table II, read-out: ED50 (95% confidence limits), apomorphine induced vomiting.
Data set [4] has as its system convulsions induced by strychnine. Nature of the data set: Strychnine-induced convulsions in the mouse. Format: in vivo.
The subject of data set [5] is gastric emptying time in humans. Nature of the data set: Gastric emptying in humans, evaluated by radiologist. The class given is in vivo. Also noted: key to effect on gastric emptying: +: no effect; ++: moderate effect; +++: good effect; ++++: maximum effect. To be noted: 10-20 mgs; as a guide. From the text: The evaluation was based on the subjective opinion of the radiologist in terms of the time required for the appearance of peristaltic waves and their capacity to evacuate. the stomach, according to the following scheme:

Another data set relates to catatonia in rats. Conditions: rat, in vivo.
The next data set has as its system oxotremorine. Conditions: mouse, in vivo.
The test system of data set [6] is spontaneous motor activity. Conditions: mouse, in vivo.
The test system of the next data set is incoordination. To be noted: mouse, in vivo.
Where [7] appears, read: Rattus norvegicus; read-out: Antiapomorphine in rat.
The mark [8] stands for this setting: compared with metoclopramide; from Table I.
Setting [9] is: Rattus norvegicus, po; per os; Table I; read-out: ED50 Values.

One may read the ED50 as the midpoint of the dose-response relation. Take `CN(C)CCCN1c2ccccc2Sc2ccc(Cl)cc21` [Chlorpromazine, reference compound]: the ED50 in data set [1] (Rattus norvegicus, po, read-out: Antiapomorphine Activity, Rats, ED50 (95% confidence limits)) was 7.95 mg/kg. For the same molecule, the minimal effective dose in data set [1] (Rattus norvegicus, read-out: Antiapomorphine in rat) is 6.25 mg/kg. In “in vivo”, the TD50 came to 12.3 mg/kg.
As to `COc1cc(N)c(Cl)cc1C(=O)NC1CCN(Cc2ccccc2)CC1` [malate salt of Clebopride, N-[4'-(1'-benzyl)piperidyl]-2-methoxy-4-amino-5-chlorobenzamide malate], in data set [2] (high doses), the absorption entry was “good absorption”, the “appearance of metabolites in blood” value is listed as “rapid appearance of metabolites in blood”, the peak levels result is reported as “rapidly appearing peak levels” and the plasma concentrations entry is listed as “relatively low plasma concentrations”. For the same molecule, the “first pass metabolism and/or uptake in the liver” value in data set [2] (suggested) was “extensive first pass metabolism and/or uptake take place in the liver”. In the data set on healthy male volunteers (Group I: 1 mg intramuscular per day for 5 days, four subjects), the side effects entry is on record as “one case of slight sleepiness was noted from the second day of treatment”. Moreover, the side effects result with healthy male volunteers (Group II: 1.5 mgs intramuscular per day for 5 days, four subjects) is “Tiredness, sleepiness and fatigue in three of the four subjects in Group II accompanied with slight depression”. Further, the side effects result in the data set with healthy male volunteers (Group III: 2 mgs intramuscular per day for 5 days, four subjects) is “Three of the four subjects in Group III showed sleepiness, fatigue and depression followed by euphoria”. In addition, the “blood and urine analysis” value in the data set with healthy male volunteers (Groups II and VII) was “no significant variations”. Also, in the data set with healthy male volunteers (Groups IV to VIII, intravenous), the “dose dependence of side effects” value was “not to be dose dependent”. Moreover, the side effects result in the data set on healthy male volunteers (Groups IV to VIII: 0.25 to 2 mgs intravenously per day for 5 days) is “Sleepiness, fatigue and depression of medium intensity were seen in many patients”. The additional side effects result in the data set on healthy male volunteers (Groups VII and VIII: 1.5 and 2 mgs intravenously per day for 5 days) is “some degree of sweating, hypersalivation and dryness of the mouth were variously seen”.
For `COc1ccc(CN2CCC(NC(=O)c3cc(Cl)c(N)cc3OC)CC2)cc1` [Compound 18, N-[4'-(1'-p-methoxy-benzyl)-piperidyl]-2-methoxy-4-amino-5-chloro-benzamidehydrochloride], in [1] (setting [7]), the minimal effective dose was found to be 3.12 mg/kg. Also, in data set [1] (setting [8]), the “activity as an anti-emetic” value is “more active as an anti-emetic”.
Regarding `COc1cc(N)c(Cl)cc1C(=O)NC1CCN(Cc2ccc3c(c2)OCO3)CC1` [Compound 15], the minimal effective dose in [1] (setting [7]) worked out at 6.25 mg/kg. Also, the “activity as an anti-emetic” value in data set [1] (setting [8]) was “more active as an anti-emetic”.
For the molecule `COc1cc(NC(=O)CN2CCCCC2)c(Cl)cc1C(=O)NC1CCN(Cc2ccccc2)CC1` [Compound 4, N-[4'-(1'-benzyl)piperidyl] -2-methoxy-4-α-(1"-piperidyl) acetamido-5-chlorobenzamide dihydrochloride], in data set [1] (setting [9]), the ED50 was around 12 mg/kg. Also, the minimal effective dose in data set [1] (setting [7]) is 12.5 mg/kg.
For `COc1ccccc1CN1CCC(NC(=O)c2cc(Cl)c(N)cc2OC)CC1` [Compound 20, N-[4'-(1'-o-methoxy-benzyl)-piperidyl]-2-methoxy-4-amino-5-chloro-benzamide], the minimal effective dose in [1] (setting [7]) stood at 25 mg/kg.
With `COc1cc(N)c(Cl)cc1C(=O)NC1CCN(Cc2ccccc2Cl)CC1` [Compound 21, N-[4'-(1'-o-chlorobenzyl)-piperidyl]-2-methoxy-4-amino-5-chloro-benzamide hydrochloride], the minimal effective dose in data set [1] (setting [7]) is 25 mg/kg.
`COc1ccc(S(N)(=O)=O)cc1C(=O)NC1CCN(Cc2ccccc2)CC1` [N-[4'-(1'-benzyl)piperidyl]-2-methoxy-5-sulphamoylbenzamide hydrochloride]: in [1] (even at high doses), the “antiapomorphine activity in the rat” value is “do not exhibit antiapomorphine activity in the rat even at high doses”.
On to `COc1cc(N)c(Cl)cc1C(=O)NC1CCN(C(c2ccccc2)c2ccccc2)CC1` [Compound 19, N-[4'-(1'-diphenyl-methyl)-piperidyl]-2-methoxy-4-amino-5-chloro-benzamide hydrochloride], for which the minimal effective dose in [1] (setting [7]) is 50 mg/kg.
Consider `COc1cc(NC(=O)C(F)(F)F)c(Cl)cc1C(=O)NC1CCN(Cc2ccccc2)CC1` [Compound 9, N-[4'-(1'-benzyl)piperidyl]-2-methoxy-4-(α,α, α-trifluoroacetamido)-5-chlorobenzamide hydrochloride], for which, in data set [1] (setting [9]), the ED50 was below 25 mg/kg. Besides, the minimal effective dose in data set [1] (setting [7]) turned out to be 3.12 mg/kg. In addition, the “activity as an anti-emetic” value in [1] (setting [8]) is on record as “more active as an anti-emetic”.
Consider `COc1cc(NC(=O)CCl)ccc1C(=O)NC1CCN(Cc2ccccc2)CC1` [Compound 5, N-[4'-(1'-benzyl)piperidyl]-2-methoxy-4-α-chloroacetamidobenzamide hydrochloride], for which the minimal effective dose in data set [1] (setting [7]) is 25 mg/kg.
As for `COc1cc(NC(C)=O)c(Cl)cc1C(=O)NC1CCN(Cc2ccccc2)CC1` [Compound 1, N-[4'-(1'-benzyl)piperidyl]-2-methoxy-4-acetamido-5-chlorobenzamide], the ED50 in data set [1] (setting [9]) is around 25 mg/kg. Also, the minimal effective dose in data set [1] (setting [7]) turned out to be 12.5 mg/kg.
On to `COc1ccc(Cl)cc1C(=O)NC1CCN(Cc2ccccc2)CC1` [Compound 10, N-[4'-(1'-benzyl)piperidyl]-2-methoxy-5-chlorobenzamide hydrochloride], for which, in data set [1] (setting [7]), the minimal effective dose came out at 50 mg/kg.
Take `COc1cc(NC(=O)CCl)c(Cl)cc1C(=O)NC1CCN(Cc2ccccc2)CC1` [Compound 3, N-[4'-(1'-benzyl)piperidyl]-2-methoxy-4-(α-chloroacetamido)-5-chlorobenzamide hydrochloride]: the ED50 in [1] (setting [9]) was below 25 mg/kg. In addition, the minimal effective dose in [1] (setting [7]) came out at 6.25 mg/kg. Further, the “activity as an anti-emetic” value in data set [1] (setting [8]) is “more active as an anti-emetic”.
As to `COc1cc(N)c(Cl)cc1C(=O)NC1CCN(Cc2cccs2)CC1` [Compound 14], in data set [1] (setting [7]), the minimal effective dose is 12.5 mg/kg.
Regarding `O=C(CCl)Nc1ccc(C(=O)NC2CCN(Cc3ccccc3)CC2)cc1` [Compound 6, N-[4'-(1'-benzyl)piperidyl]-4-(α-chloroacetamido) benzamide hydrochloride], the minimal effective dose in data set [1] (setting [7]) was found to be 50 mg/kg.
`COc1cc(NC(=O)C(F)(F)F)ccc1C(=O)NC1CCN(Cc2ccccc2)CC1` [Compound 7, N-[4'-(1'-benzyl)piperidyl]-2-methoxy-4-(α,α,α-trifluoroacetamido) benzamide hydrochloride]: the ED50 in data set [1] (setting [9]) was below 25 mg/kg. Besides, in data set [1] (setting [7]), the minimal effective dose was found to be 25 mg/kg.
Turning to `COc1cc(N)c(Cl)cc1C(=O)NC1CCN(Cc2cccc(Cl)c2)CC1` [Compound 17, N-[4'-(1'-m-chlorobenzyl)-piperidyl]-2-methoxy-4-amino-5-chloro-benzamide hydrochloride], the minimal effective dose in data set [1] (setting [7]) was 12.5 mg/kg.
On to `COc1cccc(CN2CCC(NC(=O)c3cc(Cl)c(N)cc3OC)CC2)c1` [Compound 13, N-[4'-(1'-m-methoxy-benzyl)-piperidyl]-2-methoxy-4-amino-5-chloro-benzamidehydrochloride], for which the minimal effective dose in data set [1] (setting [7]) turned out to be 25 mg/kg.
Regarding `COc1cc(N)ccc1C(=O)NC1CCN(Cc2ccccc2)CC1` [Compound 8, N-[4'-(1'-benzyl)-piperidyl]-2-methoxy-4-aminobenzamide dihydrochloride], in data set [1] (setting [9]), the ED50 was below 25 mg/kg. For the same molecule, the minimal effective dose in data set [1] (setting [7]) was 6.25 mg/kg. Moreover, the “activity as an anti-emetic” value in [1] (setting [8]) is reported as “more active as an anti-emetic”.
For the molecule `COc1cc(N)c(Cl)cc1C(=O)NC1CCN(Cc2ccc(Cl)cc2)CC1` [Compound 12, N-[4'-(1'-p-chlorobenzyl)-piperidyl]-2-methoxy-4-amino-5-chloro-benzamide hydrochloride], the minimal effective dose in [1] (setting [7]) stood at 3.12 mg/kg. Further, the “activity as an anti-emetic” value in [1] (setting [8]) was “more active as an anti-emetic”.
Consider `CCN(CC)CCNC(=O)c1cc(Cl)c(N)cc1OC` [Metoclopramide, reference compound], for which the ED50 in data set [1] (setting [9]) was around 6 mg/kg; in data set [1] (Rattus norvegicus, po; rats; per os; Table III; read-out: Antiapomorphine Activity, Rats, ED50 (95% confidence limits)), 11.8 mg/kg; in data set [3] it was 0.343 mg/kg. Also, the minimal effective dose in [1] (setting [7]) was 12.5 mg/kg. In addition, the “inhibition of convulsions induced by strychnine” value in data set [4] is “neither Clebopride nor metoclopramide appear to inhibit convulsions induced by strychnine”. The “effect on gastric emptying” value in [5] is “+++”. The “antiemetic doses compared with those causing catatonia” value in the data set with catatonia in rats is “at doses which are far removed from those causing catatonia”. Moreover, in the data set with oxotremorine, the salivation and tremors entry is “capable of causing salivation and tremors”. Further, in data set [6], the spontaneous motor activity result is recorded as “inhibit spontaneous motor activity”. Also, in the data set on incoordination, the incoordination result was “cause incoordination”. In the data set “in vivo”, the TD50 was 93 mg/kg.
Turning to `COc1cc(N)c(Cl)cc1C(=O)NC1CCN(CC=Cc2ccccc2)CC1` [Compound 16, N-[4'-(1'-cinnamyl)-piperidyl]-2-methoxy-4-amino-5-chlorobenzamide hydrochloride], the minimal effective dose in data set [1] (setting [7]) came to 25 mg/kg.
